Experimental data reported in patent US12195427B2, “MASP-2 inhibitors and methods of use” (priority 2018, dated 2025).

Target: MASP-2 CCP2-SP (Homo sapiens (Human), UniProt O00187)
Assay: MASP-2 co-crystallization, X-ray crystallography and structure analysis (H-bonds, van der Waals contacts);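 as to Ligand-pharmacophore element distance, pharmacophore element C2: distance from averaged pharmacophore element to bound ligand; missing value means element absent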;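 as to Ligand-pharmacophore element distance, pharmacophore element C3: distance from averaged pharmacophore element to bound ligand; missing value means element absent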;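 as to Ligand-pharmacophore element distance, pharmacophore element C4: distance from averaged pharmacophore element to bound ligand; missing value means element absent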;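 as to Ligand-pharmacophore element distance, pharmacophore element C5: distance from averaged pharmacophore element to bound ligand; missing value means element absent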
Design: van der Waals contact distance, MASP-2 HIS 483 atom CD2 / van der Waals contact distance, MASP-2 HIS 483 atom NE2 / van der Waals contact distance, SER 654 C to compound atom / van der Waals contact distance, SER 654 O to compound atom / van der Waals contact distance, TRP 655 C to compound atom / van der Waals contact distance, MASP-2 GLY 528 atom CA / van der Waals contact distance TRP 655 atom CZ3 / van der Waals contact distance TRP 655 atom N / van der Waals contact distance TRP 655 atom CE3 / van der Waals contact distance GLY 656 atom C / van der Waals contact distance GLY 656 atom CA / van der Waals contact distance GLY 656 atom O / van der Waals contact distance, MASP-2 TYR 607 atom CD1 / van der Waals contact distance, MASP-2 PRO 606 atom O / d(C3,CA1) / d(CA1,N1)2 / d(H4,O1) / d(H4,O2) / d(O1,O2) / d(CA1,O2) / d(CA6,O1) / d(CA6,O2) / d(CA1,C5) / d(O2,H3) / d(N2,C2) / d(CA5,N2) / d(N2,C4) / d(N2,C6) / d(N2,CA3) / d(N2,O3) / d(O4,H2): unit not given beside the values
Conditions: for Ligand-pharmacophore element distance, pharmacophore element C2 / Ligand-pharmacophore element distance, pharmacophore element C3 / Ligand-pharmacophore element distance, pharmacophore element C4 / Ligand-pharmacophore element distance, pharmacophore element C5 / Ligand-pharmacophore element distance, pharmacophore element C6 / Ligand-pharmacophore element distance, pharmacophore element C7 / Ligand-pharmacophore element distance, pharmacophore element CA1 / Ligand-pharmacophore element distance, pharmacophore element CA2 / Ligand-pharmacophore element distance, pharmacophore element CA3 / Ligand-pharmacophore element distance, pharmacophore element CA4 / Ligand-pharmacophore element distance, pharmacophore element CA5 / Ligand-pharmacophore element distance, pharmacophore element CA6: Table A4-1; for d(CA1,N1)2 / d(CA1,O1) / d(CA1,O2) / d(H4,O1) / d(H4,O2) / d(O1,O2) / d(C3,CA1): Table A5-1 pharmacophore: distance between elements, S2/S1 region; for d(N2,CA2) / d(O2,H3) / d(O2,N2) / d(N2,C2): Table A5-2 pharmacophore distance, S3/S4 region; for a(CA1, O1, O2) / a(O1, O2, H4) / a(N1, CA1, O1) b) / a(C3, CA1, O1): Table A6-1 pharmacophore angle; for a(N1, CA1, O1) b): Methyl-amino-pyridine compounds; for a(O1, O2, H3) / a(O1, O2, N2) / a(O2, N2, CA2) / a(O2, N2, C2): Table A6-2 pharmacophore angle; for Pharmacophore torsion angle a(H4, O1, O2, H3) / Pharmacophore torsion angle a(H4, O1, O2, N2) / Pharmacophore torsion angle a(N1, CA1, O1, H4) / Pharmacophore torsion angle a(O1, H4, O2, CA1) / Pharmacophore torsion angle a(C3, CA1, O1, H4) / Pharmacophore torsion angle a(O1, O2, N2, C2): Table A7-1
Text: This example illustrates the preparation of recombinant MASP-2 protein, based on UniProt O00187, human mannan-binding lectin serine protease 2. Expression constructs for human MASP-2 CCP2-SP and CCP2-SP-6HIS were generated for recombinant expression in E. coli cells.
Typically, crystallization hits were obtained by screening against […] 96-well crystallization reagent kits (GRAS6, GRAS2, Hampton Research; MORPHEUS, Molecular Dimensions; Wizard 1&2 Cryo, Rigaku Reagents) and crystal growth was inspected by optical microscopy. Crystals were used directly or further optimized for X-ray diffraction. Crystals were captured with cryogenic loops and dipped into liquid nitrogen directly or cryoprotected with a 20% glycerol in crystallization formulation before flash-cooling in liquid nitrogen.
Thereafter crystals are transferred once or twice for soaking within the crystallization solution containing the MASP-2 inhibitor.
Crystals were diffracted with synchrotron X-rays of […] and X-ray diffraction datasets were collected at beamlines SSRL BL9-2, BL14-1, BL12-2 as well as ALS sector 5 using Dectris Pilatus and Eiger detectors. Structures were determined by molecular replacement using portions of the structure 1Q3X as search models and partially refined with Buster 2.10.2 or Refmac 5.8. […] When multiple ligand poses were observed, for instance arising from multiple molecules in the asymmetric unit or refined dual poses within the same molecule, only one pose was selected and analyzed.
LigPlot+ calls these ‘nonbonded contacts’ or ‘hydrophobic contacts’. Despite the name, there are atom pairings that include possible H-bonds. Thus, in some instances, the Table A2 also contains H-bond interactions.

[1] = between pharmacophore elements of the bound compound
[2] = Table A7-2, between pharmacophore elements of the bound compound
[3] = Table A8-6, nearest protein atom in cell to the left

Chain of MASP-2 CCP2-SP (O00187 445-686): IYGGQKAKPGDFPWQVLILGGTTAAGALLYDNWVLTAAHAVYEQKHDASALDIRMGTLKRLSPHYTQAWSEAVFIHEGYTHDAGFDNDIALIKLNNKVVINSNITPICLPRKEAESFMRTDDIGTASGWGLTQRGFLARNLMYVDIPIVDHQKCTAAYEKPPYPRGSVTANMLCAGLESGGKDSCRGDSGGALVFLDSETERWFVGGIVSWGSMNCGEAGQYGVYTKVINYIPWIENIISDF
Chain of MASP-2 CCP2-SP (O00187 364-432 partner): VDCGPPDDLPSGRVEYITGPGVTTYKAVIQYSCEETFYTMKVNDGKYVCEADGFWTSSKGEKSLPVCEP

C[C@H](NC(=O)[C@H](N)CCc1ccccc1)C(=O)NCc1ccc(N)nc1.Cl.Cl [1007_2]
Ligand-pharmacophore element distance, pharmacophore element C2: 0 | Ligand-pharmacophore element distance, pharmacophore element C3: 0 | Ligand-pharmacophore element distance, pharmacophore element C4: 0 | Ligand-pharmacophore element distance, pharmacophore element C5: 0 | Ligand-pharmacophore element distance, pharmacophore element C6: 0 | Ligand-pharmacophore element distance, pharmacophore element C7: 0 | Ligand-pharmacophore element distance, pharmacophore element CA1: 0.59 | Ligand-pharmacophore element distance, pharmacophore element CA2: 0.86 | Ligand-pharmacophore element distance, pharmacophore element CA3: 0 | Ligand-pharmacophore element distance, pharmacophore element CA4: 0 | Ligand-pharmacophore element distance, pharmacophore element CA5: 0 | Ligand-pharmacophore element distance, pharmacophore element CA6: 0 | d(CA1,N1)2: 1.38 | d(CA1,O1): 4.52 | d(CA1,O2): 4.00 | d(H4,O1): 3.69 | d(H4,O2): 2.76 | d(O1,O2): 3.63 | d(N2,CA2): 6.11 | d(O2,H3): 4.67 | d(O2,N2): 2.86 | a(CA1, O1, O2): 107.55 | a(O1, O2, H4): 113.36 | a(N1, CA1, O1) b): 174.22 | a(O1, O2, H3): 145.74 | a(O1, O2, N2): 133.10 | a(O2, N2, CA2): 153.46 | Pharmacophore torsion angle a(H4, O1, O2, H3) [1]: 47.32 | Pharmacophore torsion angle a(H4, O1, O2, N2) [1]: 126.25 | Pharmacophore torsion angle a(N1, CA1, O1, H4) [1]: 48.80 | Pharmacophore torsion angle a(O1, H4, O2, CA1) [1]: −94.30 | Pharmacophore torsion angle a(O1, O2, N2, CA2) [2]: 131.44 | Pharmacophore protein distance to MET_658 (first MET_658 column) (Table A8-6, 6th residue column, nearest protein atom in cell to the left): 2.59 | Pharmacophore protein distance to MET_658 (second MET_658 column) (Table A8-6, 9th residue column, nearest protein atom in cell to the left): 3.37 | Pharmacophore protein distance to GLY_528 [3]: 3.72 | Pharmacophore protein distance to PHE_529 [3]: 3.20 | Pharmacophore protein distance to PRO_608 [3]: 3.12 | Pharmacophore protein distance to SER_611 [3]: 2.21 | Pharmacophore protein distance to TRP_655 (Table A8-6, pharmacophore elements C6, CA3, O3, H1, nearest protein atom in cell to the left): 3.60

Cc1nc(N)ccc1CNC(=O)C(C)NC(=O)C1CC(c2cccc3ccccc23)CCN1.Cl.Cl (stereo not drawn) [1297_6]
Ligand-pharmacophore element distance, pharmacophore element C2: 0.33 | Ligand-pharmacophore element distance, pharmacophore element C3: 0.4 | Ligand-pharmacophore element distance, pharmacophore element C4: 0 | Ligand-pharmacophore element distance, pharmacophore element C5: 0 | Ligand-pharmacophore element distance, pharmacophore element C6: 0 | Ligand-pharmacophore element distance, pharmacophore element C7: 0 | Ligand-pharmacophore element distance, pharmacophore element CA1: 0.36 | Ligand-pharmacophore element distance, pharmacophore element CA2: 0.24 | Ligand-pharmacophore element distance, pharmacophore element CA3: 0 | Ligand-pharmacophore element distance, pharmacophore element CA4: 1.14 | Ligand-pharmacophore element distance, pharmacophore element CA5: 0 | Ligand-pharmacophore element distance, pharmacophore element CA6: 0 | d(C3,CA1): 2.86 | d(CA1,N1)2: 1.38 | d(CA1,O1): 4.73 | d(CA1,O2): 4.23 | d(H4,O1): 4.65 | d(H4,O2): 4.26 | d(O1,O2): 3.53 | d(N2,C2): 1.44 | d(N2,CA2): 5.72 | d(O2,H3): 4.15 | d(O2,N2): 2.83 | a(C3, CA1, O1): 150.35 | a(CA1, O1, O2): 105.49 | a(O1, O2, H4): 133.61 | a(N1, CA1, O1) b): 173.49 | a(O1, O2, H3): 144.79 | a(O1, O2, N2): 141.32 | a(O2, N2, C2): 116.76 | a(O2, N2, CA2): 154.05 | Pharmacophore torsion angle a(C3, CA1, O1, H4) [1]: 27.46 | Pharmacophore torsion angle a(H4, O1, O2, H3) [1]: 43.22 | Pharmacophore torsion angle a(H4, O1, O2, N2) [1]: 150.19 | Pharmacophore torsion angle a(N1, CA1, O1, H4) [1]: 5.20 | Pharmacophore torsion angle a(O1, H4, O2, CA1) [1]: −89.84 | Pharmacophore torsion angle a(O1, O2, N2, C2) [1]: 132.97 | Pharmacophore torsion angle a(O1, O2, N2, CA2) [2]: 131.04 | Pharmacophore torsion angle a(O1, O2, N2, CA4) [2]: 109.63

Cc1nc(N)ccc1CNC(=O)[C@H](C)NC(=O)[C@H]1C[C@@H](Cc2ccccc2)CCN1 [compound 1353, (2R,4S)—N—((S)-1-(((6-Amino-2-methylpyridin-3-yl)methyl)amino)-1-oxopropan-2-yl)-4-benzylpiperidine-2-carboxamide]
H-bond distance to MASP-2 ASP 627 atom OD2 (Table A1 (H-Bonds), ASP 627 OD2): 3.17 | H-bond distance to MASP-2 GLY 656 atom N (Table A1 (H-Bonds), GLY 656 N): 3.15 | H-bond distance to MASP-2 GLY 656 atom O (Table A1 (H-Bonds), GLY 656 O): 2.85 | H-bond distance to MASP-2 SER 654 atom O (Table A1 (H-Bonds), SER 654 O): 3 | H-bond distance to MASP-2 SER 657 atom O (Table A1 (H-Bonds), SER 657 O): 2.91 | van der Waals contact distance, MASP-2 HIS 483 atom CD2 (Table A2-1): 3.77 | van der Waals contact distance, MASP-2 HIS 483 atom NE2 (Table A2-1): 3.67 | van der Waals contact distance, MASP-2 PHE 529 atom CD2 (Table A2-3): 3.68 | van der Waals contact distance, MASP-2 TYR 607 atom CD1 (Table A2-4): 3.75 | van der Waals contact distance, MASP-2 amino acid atom to compound atom (Table A2-7: SER 628 (CB, O, OG)): 3.66 | van der Waals contact distance, MASP-2 amino acid atom to compound atom (Table A2-9, ARG 630, AA atoms CG, CZ): 3.74 | van der Waals contact distance, VAL 653 CG1 to compound atom (Table A2-11): 3.3 | van der Waals contact distance, TRP 655 CA to compound atom (Table A2-12): 3.3 | Ligand-pharmacophore element distance, pharmacophore element C2: 0.58 | Ligand-pharmacophore element distance, pharmacophore element C3: 0.13 | Ligand-pharmacophore element distance, pharmacophore element C4: 0 | Ligand-pharmacophore element distance, pharmacophore element C5: 0 | Ligand-pharmacophore element distance, pharmacophore element C6: 0 | Ligand-pharmacophore element distance, pharmacophore element C7: 0 | Ligand-pharmacophore element distance, pharmacophore element CA1: 0.61 | Ligand-pharmacophore element distance, pharmacophore element CA2: 0.5 | Ligand-pharmacophore element distance, pharmacophore element CA3: 0 | Ligand-pharmacophore element distance, pharmacophore element CA4: 0 | Ligand-pharmacophore element distance, pharmacophore element CA5: 0 | Ligand-pharmacophore element distance, pharmacophore element CA6: 0 | d(C3,CA1): 2.85 | d(CA1,N1)2: 1.36 | d(CA1,O1): 4.38 | d(CA1,O2): 3.79 | d(H4,O1): 4.38 | d(H4,O2): 3.72 | d(O1,O2): 3.27 | d(N2,C2): 1.45 | d(N2,CA2): 6.50 | d(O2,H3): 4.10 | d(O2,N2): 2.69 | a(C3, CA1, O1): 149.99 | a(CA1, O1, O2): 103.61 | a(O1, O2, H4): 133.22 | a(N1, CA1, O1) b): 173.73 | a(O1, O2, H3): 146.74 | a(O1, O2, N2): 137.66 | a(O2, N2, C2): 130.69 | a(O2, N2, CA2): 157.19 | Pharmacophore torsion angle a(C3, CA1, O1, H4) [1]: 23.38 | Pharmacophore torsion angle a(H4, O1, O2, H3) [1]: 51.34 | Pharmacophore torsion angle a(H4, O1, O2, N2) [1]: 136.30 | Pharmacophore torsion angle a(N1, CA1, O1, H4) [1]: 3.14 | Pharmacophore torsion angle a(O1, H4, O2, CA1) [1]: −84.72 | Pharmacophore torsion angle a(O1, O2, N2, C2) [1]: 126.15 | Pharmacophore torsion angle a(O1, O2, N2, CA2) [2]: 120.30
